Test results reported in US7718768B2, “Biologically active peptide [sequence]” (CMS Peptides Patent Holding Company Limited, priority 2001, dated 2010).
Several values for one entry are separate records, joined by “and”; a condition that tells them apart may be missing. Identical values can stand only once. Marks after values point to notes of the source that are not given here. No end group written: not given here.

Columns and labels:
T lymphocyte [1] = assay: T lymphocyte IL-2 secretion test (HT-2 cell bioassay of ConA supernatant); assay type: in vivo, BALB/c mice; conditions: IFN-γ and IL-2 groups 3×10^5 IU/kg/day, X ± SD
Description: The above substances were all dissolved in 0.5 ml saline and injected intraperitoneal (i.p.) for 15 continuous days, once per day.
(§1) Spleen cells of density 1×10^6/ml were placed onto a 96 wells cell culture plate, 100 μl/well, three parallel wells each of the assay sample and control sample per mouse. To the assay wells, 100 μl/well ConA of 100 μg/ml in RPMI-1640 was added, and 100 μl/well plain RPMI-1640 was used for the controls. The cells were incubated for 66 hrs at 37° C., 5% CO2. The cells were then pelleted by centrifugation at 150 g for 10 minutes.
HT-2 cells at log phase were collected by centrifugation at 150 g for 10 minutes, and washed three times with cold Hank's solution by re-suspension and centrifugation. The collected HT-2 cells were re-suspended in RPMI-1640 and incubated at 37° C., 5% CO2 for 30 minutes. The cells were further washed twice with RPMI-1640 by re-suspension and centrifugation, and re-suspended to final concentration of 2×10^5/ml with RPMI-1640.
rIL-2 was diluted to the following concentration with RPMI-1640: 500 IU/ml, 250 IU/ml, 125 IU/ml, 62.5 IU/ml, 31.25 IU/ml, and […].
A 96 well cell culture plate was set up with three parallel wells per combination:
Negative control: 100 μl RPMI-1640+100 μl HT-2 cell suspension
rIL-2 standard: 100 μl rIL-2 solution+100 μl HT-2 cell suspension
Assay well: 100 μl diluted supernatant+100 μl HT-2 cell suspension
The plate was incubated at 37° C., 5% CO2 for 68 hours, then centrifuged at 150 g for 15 minutes and the supernatant removed. 100 μl 0.5 mg/ml MTT in RPMI-1640 without phenolsulfonphthalein was added into each well. After shaking for 3-4 minutes to re-suspend the cells, continue to incubate for another 4 hours. Samples were then centrifuged at 150 g for 15 minutes and the supernatant was removed. To each well, 120 μl 40 mM HCl-2-propanol was added, mixed for 3-4 minutes and OD analyzed at 570 nm, referenced at 630 nm with an ELISA plate reader.
The average OD of the three parallel wells of each dilution was taken and plotted against concentration on a semi-log paper, concentration on the X-axis. The concentration at 50% OD saturation was obtained for both the testing supernatant and rIL-2.

T lymphocyte [2] = system: T lymphocyte; set-up: species or system BALB/c mice; conditions: mouse, in vivo, ip
T lymphocyte [3] = assay: T lymphocyte transformation in mice with ascitic fluid type liver cancer H22; assay type: in vivo, BALB/c mice
Description: Healthy BALB/c mice were randomized into peptide group, rmIFN-γ group, rhIL-2 group, and saline group, 15 mice per group, and prepared into H22 carrying mice model as described in section Method 3. After implantation of the cancer cells, the test substances were administered for 15 days, the mice were killed by cervical dislocation. The spleen was isolated aseptically and manually dispersed in cold D-Hank's solution using an injection needle. The dispersed cell suspension was further sieved through a 100-gauge 150 μm diameter stainless steel sieve. After centrifugation at 200 g for 10 minutes, the supernatant was discarded. The cell pellet was re-suspended in 10 volume of Tris-NH4Cl buffer and then kept standing still for 10 minutes at room temperature. The suspended cells were collected by centrifugation at 150 g for 10 minutes. The cells were washed 2-4 times with cold D-Hank's solution by re-suspending and collecting by centrifugation with condition as described above. The washed cells were then diluted to the desired cell densities by RPMI-1640 culture medium, containing 10% fetal bovine serum.
as §1
50 μl/well MTT of 1 mg/ml in RPMI-1640 was added to the cell pellet and the cells re-suspended by shaking for 2 minutes. The incubation was continued for 4 hours. The supernatant was discarded after centrifugation at 150 g for 10 minutes. 120 μl 40 mM HCl-2-propanol was added to the cell pellet and shaken for 3 minutes. Use an ELISA reader to obtain OD570nm of each well referenced at 630 nm.
Each mouse formed three assay wells and three control wells. The Stimulation Index (SI) of each mouse was obtained by first deriving the average OD of the three parallel wells, then dividing the value of the assay wells by the control wells.

[4] = peptide 50 μg/kg/day i.p. 15 days
[5] = peptide 500 μg/kg/day i.p. 15 days
[6] = peptide 0.5 μg/kg/day i.p. 15 days

Molecule: FNFVPP [CMS003]
- activity of T lymphocyte in secreting IL-2 (T lymphocyte [1]; [4]): 86 ± 9*^ IU
- activity of T lymphocyte in secreting IFN (T lymphocyte [2]): 106 ± 16 IU

Molecule: IGMESAGIHETTY [CMS016]
- activity of T lymphocyte in secreting IFN (T lymphocyte [2]): 162 ± 19*^@^ IU

Molecule: LRVAPEEHPTL [CMS009]
- activity of T lymphocyte in secreting IL-2 (T lymphocyte [1]; [5]): 114 ± 13*^@^ IU
- activity of T lymphocyte in secreting IFN (T lymphocyte [2]): 121 ± 15*^ IU

Molecule: PSIVGRPRHQGVM [CMS015]
- activity of T lymphocyte in secreting IL-2 (T lymphocyte [1]; [5]): 85 ± 17*^ IU

Molecule: PTTKTYFPHF [CMS001]
- activity of T lymphocyte in secreting IL-2 (T lymphocyte [1]; [4]): 60 ± 10 IU

Molecule: Phe Val Asn Asp (FVND; listed as Sus scrofa) [CMS035]
- Stimulation index (T lymphocyte [3]; 0.5 μg/kg i.p. once per day): 1.40 ± 0.13*^$
- Stimulation index (T lymphocyte [3]; 5 μg/kg i.p. once per day): 1.46 ± 0.16*^$

Molecule: Pro Glu Asn Phe (PENF; listed as Sus scrofa) [CMS034]
- activity of T lymphocyte in secreting IL-2 (T lymphocyte [1]; [6]): 85 ± 10*^ IU
- Stimulation index (T lymphocyte [3]; 0.5 μg/kg i.p. once per day): 1.37 ± 0.10*^$

Molecule: RVAPEEHPTL [CMS011]
- activity of T lymphocyte in secreting IL-2 (T lymphocyte [1]; [6]): 101 ± 19*^@^ IU
- activity of T lymphocyte in secreting IFN (T lymphocyte [2]): 89 ± 18 IU

Molecule: Tyr Ser Leu (YSL; listed as Sus scrofa) [CMS024]
- Stimulation index (T lymphocyte [3]; 0.5 μg/kg i.p. once per day): 1.46 ± 0.19*^$
- Stimulation index (T lymphocyte [3]; 5 μg/kg i.p. once per day): 1.45 ± 0.21*^$

Molecule: VAPEEHPTLLTEAPLNPK [CMS010]
- activity of T lymphocyte in secreting IL-2 (T lymphocyte [1]; [6]): 66 ± 11 IU
- activity of T lymphocyte in secreting IL-2 (T lymphocyte [1]; [5]): 125 ± 17*^@^ IU
- activity of T lymphocyte in secreting IFN (T lymphocyte [2]): 167 ± 13*^@^ IU and 142 ± 18*^@^ IU
- Stimulation index (T lymphocyte [3]; 500 μg/kg i.p. once per day): 1.45 ± 0.21*^$

Molecule: VGMGQKDSY [CMS019]
- Stimulation index (T lymphocyte [3]; 0.5 μg/kg i.p. once per day): 1.50 ± 0.19*^$

B1: IFN-γ: recombinant mouse interferon-γ, Beijing Biotech Inc.; positive control immunostimulant (protein, UniProt P01580 23-155, looked up)
Interferon gamma: HGTVIESLESLNNYFNSSGIDVEEKSLFLDIWRNWQKDGDMKILQSQIISFYLRLFEVLKDNQAISNNISVIESHLITTFFSNSKAKKDAFMSIAKFEVNNPQVQRQAFNELIRVVHQLLPESSLRKRKRSRC
- activity of T lymphocyte in secreting IL-2 (T lymphocyte [1]; [6]): 87 ± 15 IU
- activity of T lymphocyte in secreting IL-2 (T lymphocyte [1]; peptide 5 μg/kg/day i.p. 15 days): 96 ± 14 IU
- activity of T lymphocyte in secreting IL-2 (T lymphocyte [1]; [4]): 99 ± 16 IU
- activity of T lymphocyte in secreting IL-2 (T lymphocyte [1]; [5]): 100 ± 18 IU
- activity of T lymphocyte in secreting IFN (T lymphocyte [2]): 139 ± 16 IU and 125 ± 18 IU and 124 ± 16 IU
- Stimulation index (T lymphocyte [3]; 3 × 10^5 IU/kg i.p. once per day): 1.27 ± 0.14
